From patent publication US8273712B2, “Promoting wound healing by administering a prostaglandin E and granulocyte-macrophage colony stimulating factor” (Medical Research Council, priority 2005, dated 2012)

Legend:
[1] = tested on: Male Sprague Dawley rats, 2 cm circular dorsal wounds; assay: Rat model of wound healing; format: in vivo; settings: for Wound area relative to control (significance, in words): day 3 post surgery; for Wound colour observations relative to control: days 3-5; for Consistent brown wound colour scores: days 9 and 10, red indicates a less healed wound than brown
Protocol: Male Sprague Dawley rats weighing between 250-300 grams were used as a wound healing model to assess the effects of PGE and GMCSF. 6 rats per treatment group were analysed to provide adequate data for statistical comparisons between control and treated groups. A total of 24 animals were used (4 groups of 6 rats). The four groups were control, 16,16-dimethyl PGE, GMCSF, and 16,16-dimethyl PGE+GMCSF groups. […] Two wounds were created on each animal, resulting in an “n” of 12 wounds per group.
Following acclimatisation (5-6 days), the rats were given a subcutaneous injection of Glycopyrolate (0.01 mg/kg at 0.02 mg/mL), dose volume 0.5 mL/kg, and anesthetised with an intraperitoneal injection of a Ketamine (40 mg/kg)/Xylazine (5 mg/kg) cocktail at 45 mg/mL (ket) and 5 mg/mL (xy), dose volume 0.88 mL/kg. Adequate depth of anesthesia was assessed by a toe pinch prior to beginning surgery, such that if any movement was noted, the animals were given more anaesthesia. […] Once anesthesia was accomplished, a 6×8 cm area was shaved in the dorsal area. Following shaving, a depilatory agent (Nair) was applied to the shaved area, and allowed to remain on the skin for approximately 5 minutes. After this time, the Nair was gently scraped from the skin with a blunt spatula and any residue was removed by rinsing the skin with deionised, distilled water and wiping with gauze sponges. The shaved area was then surgically prepared with chlorhexidine and alcohol scrub.
The rat was then placed on its abdomen and positioned in such a way that the limbs were relaxed and the spine was straight. […] The inside margins of the T were traced with a Sharpie pen, such that as upside-down “L” appeared on the right side of the rat and an upside-down and backward “L” appeared on the left side of the animal. These designated the cranial border of each wound, approximately 3 cm caudal to the scapular angles, and the medial border of each wound, approximately 0.25 cm from the midline.
To make the wound template, the rim of a cap from a Corning 15 ml conical tube was placed on the area and traced using a sterile surgical marker creating a 2 cm circle within one of the upside-down L's described above. An initial incision was made with a #10 scalpel blade at the medial edge of each circle. The incision was made through the panniculus carnosus into the areolar layer of the subcutaneous loose connective tissue. The excision was continued around the entire perimeter of the circle using forceps and Metzenbaum curved scissors while taking care to avoid damaging the deep fescial layers. The skin was removed to leave a circular wound. Where necessary, hemostasis was achieved by even compression with a sterile gauze pad.
The test agent or vehicle control, was administered at three different sites under the wound bed. Group assignments and dose levels for each treatment were as detailed in Table 8. Dose levels were based on body weight.
The wounds were not covered with any type of dressing. Approximately 30 minutes after recovery (determined by sternal recumbency and normal movement) the animals were given a subcutaneous injection of Buprenorphine (0.1 mg/kg) and transferred to individual cages with elevated stainless steel floors. Additional Buprenorphine was given every 6-8 hours as needed, then for the following 72 hours, 0.05 mg/kg was administered every 6-12 hours as needed.
Animals were anesthetised with isoflurane on days 3, 7, and 10 following surgery and the wounds were measured by caliper for width and length. The width and length measurements were then multiplied to calculate wound area and the mean wound area and standard error of the mean for each treatment determined. To test for any significant difference in wound healing relative to control treatment, a two-way analysis of variance (ANOVA) test was performed on the mean wound areas. In addition to wound area, wound healing was evaluated daily by observing wound colour. […]

[2] = target: T1, 15-hydroxy prostaglandin dehydrogenase (Homo sapiens, UniProt P15428); settings: cited from earlier work
T1 sequence (P15428 1-266): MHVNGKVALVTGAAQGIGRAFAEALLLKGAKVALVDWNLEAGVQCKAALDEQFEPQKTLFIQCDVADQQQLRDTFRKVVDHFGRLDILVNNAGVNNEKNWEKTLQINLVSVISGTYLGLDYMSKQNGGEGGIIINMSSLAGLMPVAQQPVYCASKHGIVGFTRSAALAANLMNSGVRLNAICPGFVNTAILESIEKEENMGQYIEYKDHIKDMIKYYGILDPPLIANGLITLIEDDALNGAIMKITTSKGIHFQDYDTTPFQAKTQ

PGE receptors = settings: cited from earlier work
ML1 cells = assay: ELISA for measuring cytokine release; format: cell-based, human; settings: monocyte
Protocol: Medium was removed from cells and analysed by ELISA. A monoclonal capture antibody was coated onto 96 well plates and culture medium was added each well. A standard curve was created with recombinant protein. After incubation and washing, a biotin-labelled monoclonal antibody was added. Following further incubation and washing, peroxidase-labelled streptavidin was added. After washing, a tetramethyl benzidine substrate was added and colour developed in proportion to the concentration of the cytokine in the original sample/standard. Colour was read using a plate photometer (Labsystems, Multiskan).
Paired antibodies and recombinant standards for CD14, CXCL8 (IL-8), and CCL2 (MCP-1) were obtained from R&D Systems Ltd, Abingdon UK and antibodies for IL-10 were obtained from Pharmingen (BD Bioscience, Erembodegem, Belgium), as shown below in Table 1.

[3] = Day 3 post surgery, PGE analog 400 μg/kg and/or GMCSF 25 μg/kg per site under the wound bed
[4] = Day 7 post surgery, PGE analog 400 μg/kg and/or GMCSF 25 μg/kg per site
[5] = Day 10 post surgery, PGE analog 400 μg/kg and/or GMCSF 25 μg/kg per site

With 16,16-dimethyl PGE [PGE analog] the “Difference in wound area relative to control” value ([1]; Day 3) was −52.21, the Mean wound area [1, 3] was 387.5 mm^2 and the “Difference in wound area relative to control” value ([1]; Day 7) was −11.29. The Mean wound area [1, 4] was 255.4 mm^2, the “Difference in wound area relative to control” value ([1]; Day 10) was −9.185 and the Mean wound area [1, 5] was 135.1 mm^2. The “Wound area relative to control (significance, in words)” value [1] was “No significant difference”, the “Wound colour observations relative to control” value [1] was “more consistent brown scores relative to the control treatment” and the “Consistent brown wound colour scores” value [1] was 2. The “Resistance to the main catabolic enzyme 15-hydroxy prostaglandin dehydrogenase” value [2] was “resistant” and the “Activation of PGE receptors” value (PGE receptors) was “activate all known PGE receptors”.
For `COc1ccc(C2CNC(=O)C2)cc1OC1CCCC1` (stereo not drawn) [rolipram], the “IL-8 release induced by PGE and GMCSF” value (ML1 cells) was “enhance IL-8 release”.
In the case of GMCSF, the “Difference in wound area relative to control” value ([1]; Day 3) is reported as −15.50, the Mean wound area [1, 3] is reported as 424.2 mm^2 and the “Difference in wound area relative to control” value ([1]; Day 7) is reported as −18.63. The Mean wound area [1, 4] was 248.0 mm^2, the “Difference in wound area relative to control” value ([1]; Day 10) was 8.761 and the Mean wound area [1, 5] was 153.0 mm^2. For the same compound, the “Wound area relative to control (significance, in words)” value [1] was “No significant difference”, the “Wound colour observations relative to control” value [1] was “more consistent brown scores relative to the control treatment” and the “Consistent brown wound colour scores” value [1] was 3.
